Earlier results as cited in patent US20200236925A1, “METHODS AND FORMULATIONS FOR PREVENTING DOWNWARD MIGRATION OF AGRICULTURAL MATERIALS” (BAYER CROPSCIENCE LP, priority 2019, published 2020).

Tests used:
[1] = test system: hybrid bermudagrass; conditions: application rate increased from 35 to 53 g ha-1; SOC ≤0.3% w w-1
[2] = test system: hybrid bermudagrass; conditions: 35 or 52 g ha-1, fall or spring treatments

For `Cc1ccc2c(c1)[C@H](Nc1nc(N)nc(C(C)F)n1)[C@@H](C)C2` (mixture of isomers) [indaziflam, N2-[(1R,2S)-2,3-dihydro-2,6-dimethyl-1H-inden-1-yl]-6-[(1RS)-1-fluoroethyl]-1,3,5-triazine-2,4-diamine], the “increase of hybrid bermudagrass injury” value [1] is listed as greater than 10 fold, the “solubility in distilled water” value (distilled water) is listed as 2.8 µg/mL and the field-T1/2 (field persistence) is listed as greater than 150 days. For the same compound, the “aqueous solubility (Ks)” value (pH 7) was 2.4 µg/mL and the “hybrid bermudagrass root strength vs nontreated” value [2] was “no differences in hybrid bermudagrass root strength”.
